Where “and” joins values, the source holds several entries; their conditions need not be identical. Identical values can stand only once. Entries after “also recorded” stand apart in the source; their conditions may differ. Like-named read-outs stand apart in the source and are kept apart here.
Tests used:
[1] = cited from earlier work
[2] = cited from earlier work; remark: listed apart in the source
[3] = test system: trained judges (expert taste panel); assay: Double-blind sequential monadic sweetness intensity test, sip and spit (Example 1 protocol); type: in vivo, human
From the text: Subjects were given three samples to evaluate. Each subject was directed to swirl the first sample in his or her mouth for 3-5 seconds, expectorate the entire sample into a discard cup, and then assess the sweetness intensity of the sample. The intensity was rated on a score card by marking a numerical value along a scale from 0 to 8 (e.g., 0=none, 2=slight, 4=definite, 8=very strong). Following the decision regarding the sweetness intensity, subjects were instructed to rinse their mouth with water and spit in the discard cup. Subjects then were given unsalted crackers to cleanse the palate. A period of 10 minutes elapsed between presentations of each sample to reduce the potential influence of residual taste effects. A second sample was then presented and evaluated as above and the same procedure was followed until all three products were evaluated. Sample presentation was randomized to avoid order of presentation bias. To participate in the sensory panel, judges or subjects were chosen from an expert taste panel. These subjects were screened for taste acuity and were trained in evaluating solutions using the sip and spit protocol and were trained in using a rating ballot. The number of judges who participated in the study was 20. The female subjects were all non-pregnant and all volunteers were of <55 years of age with no history of allergy to sucrose. Judges were asked to execute an informed consent form. Specifically, the following instructions were given to the judges: Please take a sip of water. Carefully take the cap off the sample cup placed in front of you. Sip, swirl for 3-5 seconds, and then spit the sample into the cup provided, then assess the intensity of the sweetness of the sample. Please evaluate the sample for the intensity of the sweet flavor and put a vertical mark on the number that best describes the intensity. Rinse your mouth with the water provided and spit into the discard cup. Use crackers provided to cleanse your palate before evaluating the next sample. If any other flavor was present in the sample please describe it. Please rinse your mouth again several times and have some more water and unsalted crackers. You will now have a rest period of 10 minutes before you will be given the next sample.

[4] = test system: trained judges (expert taste panel); assay: Double-blind sequential monadic sweetness intensity test, taste and swallow (Example 6 protocol), beverages and solutions; type: in vivo, human; settings: for intrinsic sweetness in unsweetened beverage: Reb C at 190 ppm or below (95, 190, 285 ppm tested)
[5] = test system: test group having five (5) subjects; assay: Forced-choice taste test of Reb C water solution against water; type: in vivo, human; settings: 250 μM Reb C water solution
Description: The taste of a 250 μM Reb C solution was evaluated by a test group having five (5) subjects as follows (Forced-choice): Subjects were presented with 2 cups, each containing 10 ml of either 250 μM Reb C water solution or water (room temperature). […] Subjects were asked to sip most or all of the 10 ml from the first cup, swish the liquid in their oral cavity, and expectorate into a cup, then rinse their mouths vigorously with water. Soon thereafter, the contents of the second cup were sampled in the same manner. Then, subjects were asked to choose the sweeter of the two samples, or if not sweet, to describe the qualitative taste profile of the sample having a detectable taste.

[6] = test system: test group having four (4) subjects; assay: Open qualitative taste report of Reb C water solutions; type: in vivo, human; settings: 250 and 300 μM Reb C in water, subjects 1 to 4
Description: The taste of 250 μM and 300 μM Reb C solutions were evaluated as follows by another test group having four (4) subjects as follows: 10 ml solutions of 250 and 300 μM Reb C in water were sampled by four subjects who were asked to report their qualitative taste experience of the solutions. […] The subjects have the following qualitative taste descriptions: […]

10 panelists = assay: Quantitative taste profile by trained panelists (Example 11); type: in vivo, human
Description: The taste of 150, 300, and 600 μM Reb C was evaluated by a test group. 10 panelists were trained over a period of a few weeks to provide a quantitative flavor profile of Reb C. Panelists first were trained using standard tastants representing the different taste modalities given in FIG. 10 (i.e., sweet, bitter, salt, sour, and licorice). They then were trained to use the scales when flavors were mixed together. All intensity ratings are on scales ranging from 0 (no taste) to 8 (highest intensity). The intensity rating for sweet is essentially the same as used in Examples 1 and 6. The taste profiles were obtained for 150, 300, and 600 μM Reb C. Reb A (0.2 mg/ml, a concentration used in some food/beverage applications for sweetening) was also evaluated in the test for comparison. The scale is not linear at the bottom. A rating of 1 is around the threshold for sweetness detection.

[7] = 5% (w/v-%) fructose solution + 300 μM enhancer, versus 7% (w/v-%) fructose
[8] = 5% (w/v-%) sucrose solution + 300 μM enhancer, versus 7% (w/v-%) sucrose, scale 0 to 8
[9] = 8% (w/v-%) sucrose solution + 300 μM enhancer, versus 11% (w/v-%) sucrose

For C=C1C[C@@]23CC[C@H]4[C@@](C)(CCC[C@@]4(C)C(=O)O[C@@H]4O[C@H](CO)[C@@H](O)[C@H](O)[C@H]4O)[C@@H]2CC[C@]1(O[C@@H]1O[C@H](CO)[C@@H](O)[C@H](O[C@@H]2O[C@H](CO)[C@@H](O)[C@H](O)[C@H]2O)[C@H]1O[C@@H]1O[C@H](CO)[C@@H](O)[C@H](O)[C@H]1O)C3 [rebaudioside A], which “aftertaste among the diterpene glycosides of Stevia extracts” value ([1]; bitter and licorice-like aftertaste) is on record?
Its value is “least aftertaste”.

What about the “effect in mixtures with other sweeteners” value ([2]; mixture with sucrose, sweetness intensity equivalent to 7% (w/v-%) sucrose) of the same molecule?
The value was “additive effect”.

What about the “effect in mixtures with other sweeteners” value ([2]; mixtures with fructose and glucose, sweetness intensity equivalent to 3% (w/v-%) sucrose) of the same molecule?
Its value is “additive effect”.

What about the “effect in mixtures with other sweeteners” value ([2]; mixtures with fructose, glucose and sucrose, sweetness intensity equivalent to 5% (w/v-%) sucrose) of the same molecule?
The value was “additive effect”.

And the “effect in mixtures with other sweeteners” value ([2]; mixtures with glucose and fructose, sweetness intensity equivalent to 7% (w/v-%) sucrose)?
The value was “suppressive effect”.

What about the “effect in mixtures with other sweeteners” value ([2]; mixtures with sucrose, sweetness intensity equivalent to 3% (w/v-%) sucrose) of the same molecule?
Its value is “synergistic effect”.

What does the source list for C=C1C[C@@]23CC[C@H]4[C@@](C)(CCC[C@@]4(C)C(=O)O[C@@H]4O[C@H](CO)[C@@H](O)[C@H](O)[C@H]4O)[C@@H]2CC[C@]1(O[C@@H]1O[C@H](CO)[C@@H](O)[C@H](O)[C@H]1O[C@@H]1O[C@@H](C)[C@H](O)[C@@H](O)[C@H]1O)C3 [Dulc A, dulcoside A]?
sweetness of sweetener solution with enhancer compared with higher sweetener concentration [3, 7]: achieved that of a 7% (w/v-%) fructose solution; also recorded: acts synergistically; sweetness of sweetener solution with enhancer compared with higher sweetener concentration [3, 8]: achieved that of a 7% (w/v-%) sucrose solution; also recorded: acts synergistically; sweetness of sweetener solution with enhancer compared with higher sweetener concentration [3, 9]: approached that of an 11% (w/v-%) sucrose solution; also recorded: acts synergistically; off-tastes ([3]; 8% (w/v-%) sucrose solution with 300 μM Dulc A): No off-tastes were detected; mean sweetness intensity score ([3]; 8% (w/v-%) sucrose solution with 300 μM Dulc A, scale 0 to 8): 6.3; sweetness relative to sucrose ([1]; known values, background): 30 times sweeter than sucrose

What does the source list for C=C1CC23CCC4C(C)(C(=O)OC5OC(CO)C(O)C(O)C5O)CCCC4(C)C2CCC1(OC1OC(CO)C(O)C(OC2OC(CO)C(O)C(O)C2O)C1OC1OC(C)C(O)C(O)C1O)C3 (stereo not drawn) [Reb C, rebaudioside C]?
sweetness of sweetener solution with enhancer compared with higher sweetener concentration [3, 7]: close to that of a 7% (w/v-%) fructose solution; also recorded: acts synergistically; sweetness of sweetener solution with enhancer compared with higher sweetener concentration [3, 8]: indistinguishable from that of a 7% (w/v-%) sucrose solution; also recorded: acts synergistically; sweetness of sweetener solution with enhancer compared with higher sweetener concentration ([3]; 8% (w/v-%) sucrose solution + 150 μM Reb C, versus 8% and 11% (w/v-%) sucrose): between that of the 8% (w/v-%) sucrose solution and that of an 11% (w/v-%) sucrose solution; also recorded: significantly enhanced; sweetness of sweetener solution with enhancer compared with higher sweetener concentration [3, 9]: close to that of an 11% (w/v-%) sucrose solution; also recorded: significantly enhanced; mean sweetness intensity score ([3]; 8% (w/v-%) sucrose solution with 150 μM Reb C, scale 0 to 8): 6.10; sweetness of sweetener solution with enhancer compared with higher sweetener concentration ([4]; 7.14% w/v erythritol water solution + 285 ppm (300 μM) Reb C, versus 7.14% and 10% erythritol): significantly sweeter than the 7.14% erythritol solution alone, but did not achieve the sweetness of a 10% erythritol solution; also recorded: acts synergistically; statistical significance of the sweetness enhancing effect ([4]; 8% (w/v-%) fructose solution + 300 μM Reb C): not statistically significant; sweetness of sweetener solution with enhancer compared with higher sweetener concentration ([4]; 8% (w/v-%) fructose solution + 300 μM Reb C, versus 8% and 11% fructose): between that of the 8% (w/v-%) fructose solution and that of an 11% (w/v-%) fructose solution; sweetness of beverage with enhancer compared with higher sweetener concentration ([4]; cola beverage buffered with citric acid, 10.39% (w/v-%) HFCS55 + 190 ppm Reb C, versus 14.29% HFCS55): significantly increases the sweetness intensity to that of 14.29% HFCS55; also recorded: synergistically enhanced; sweetness of beverage with enhancer compared with beverage alone ([4]; cola beverage buffered with phosphoric acid, 10.39% (w/v-%) HFCS55 + 190 ppm Reb C): is not higher than that of 10.39% (w/v-%) HFCS55 cola beverage alone; sweetness of beverage with enhancer compared with higher sweetener concentration ([4]; cola beverage buffered with phosphoric acid, 10.39% (w/v-%) HFCS55 + 310 ppm Reb C, versus 14.29% HFCS55): increased significantly the sweetness intensity of a cola beverage containing 10.39% (w/v-%) HFCS55, but did not reach the sweetness of a 14.29% (w/v-%) HFCS55 cola beverage; also recorded: enhances the sweetness intensity; sweetness of beverage with enhancer compared with higher sweetener concentration ([4]; iced tea, 8% (w/v-%) sucrose + 300 μM Reb C, versus 8% and 11% sucrose): between that of the 8% (w/v-%) solution and that of an 11% (w/v-%) sucrose solution; also recorded: enhances the sweetness intensity; sweetness of beverage with enhancer compared with higher sweetener concentration ([4]; iced tea, 10.39% (w/v-%) HFCS55 + 300 μM Reb C, versus 14.29% HFCS55): indistinguishable from that of a 14.29% (w/v-%) HFCS55 (HFCS) solution; also recorded: acts synergistically; sweetness of beverage with enhancer compared with higher sweetener concentration ([4]; lemon-lime soda (citric acid), 10.39% (w/v-%) HFCS55 + 190 ppm Reb C, versus 14.29% HFCS55): did not reach the sweetness of a 14.29% (w/v-%) HFCS55 solution; also recorded: synergistically enhanced; intrinsic sweetness in unsweetened beverage ([4]; unsweetened cola beverage): does not increase the sweetness of an unsweetened cola beverage; intrinsic sweetness in unsweetened beverage ([4]; unsweetened lemon-lime soda (FIG. 16)): does not increase the sweetness of an unsweetened cola beverage; identification of the sample against water (forced-choice) ([5]; 10 ml, room temperature, five subjects): All subjects correctly identified the sample containing Reb C; qualitative taste description (one per subject) ([5]; subjects 1 to 5): Metallic, not sweet; also recorded: Aversive (“Nasty”); also recorded: Slight sweet, astringent; also recorded: Faintly sweet; also recorded: Slight sweet/licorice; qualitative taste description (one per subject) [6]: bitter and/or licorice; unpleasant tastes, bitter and licorice (10 panelists; 150, 300 and 600 μM Reb C alone): barely detected; intrinsic sweetness (10 panelists; 150, 300 and 600 μM Reb C, scale 0 to 8): little or no intrinsic sweetness; unpleasant tastes, bitter and licorice (10 panelists; Reb C combined with sugar): undetected

With OC[C@H]1O[C@@](CO)(O[C@H]2O[C@H](CO)[C@@H](O)[C@H](O)[C@H]2O)[C@@H](O)[C@@H]1O [sucrose, α-D-glucopyranosyl-(1→2)-β-D-fructofuranose, reference compound] as the molecule, how does the “mean sweetness intensity score” value ([3]; 8% (w/v-%) sucrose solution alone (low-concentration comparator), scale 0 to 8) read?
Its value is 5.30 and 5.0.

What about the “mean sweetness intensity score” value ([3]; 11% (w/v-%) sucrose solution alone (high-concentration comparator), scale 0 to 8) of the same molecule?
The value was 6.95 and 6.7.

From patent publication US20110224311A1, “Natural Product Sweetness Enhancers” (priority 2009, published 2011)
